Molecules are shown by their SMILES.

For test [1], the target named is T1, soluble guanylate cyclase (sGC) (Rattus norvegicus, UniProt P20595).
T1 construct: endogenous in cells; host or cells: primary rat aortic smooth muscle cells
T1 sequence (P20595 1-619): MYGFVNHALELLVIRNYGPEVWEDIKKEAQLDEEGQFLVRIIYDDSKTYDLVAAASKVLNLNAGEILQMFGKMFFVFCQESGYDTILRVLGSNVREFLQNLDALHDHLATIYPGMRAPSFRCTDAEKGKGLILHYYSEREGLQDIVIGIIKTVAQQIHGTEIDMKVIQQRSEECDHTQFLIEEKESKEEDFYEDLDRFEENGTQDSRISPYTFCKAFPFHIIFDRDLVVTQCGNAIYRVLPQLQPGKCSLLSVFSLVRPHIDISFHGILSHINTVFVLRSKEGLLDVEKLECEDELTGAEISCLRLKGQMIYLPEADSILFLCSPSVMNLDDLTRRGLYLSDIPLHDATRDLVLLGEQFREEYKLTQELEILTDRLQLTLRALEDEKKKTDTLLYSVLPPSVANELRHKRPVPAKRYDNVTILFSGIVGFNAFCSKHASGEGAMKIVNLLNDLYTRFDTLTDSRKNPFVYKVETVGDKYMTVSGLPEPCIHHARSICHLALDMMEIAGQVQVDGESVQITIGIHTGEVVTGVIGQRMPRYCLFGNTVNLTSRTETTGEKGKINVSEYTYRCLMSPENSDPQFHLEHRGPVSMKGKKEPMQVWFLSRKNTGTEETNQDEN
T1 sequence (P19686 1-690 partner): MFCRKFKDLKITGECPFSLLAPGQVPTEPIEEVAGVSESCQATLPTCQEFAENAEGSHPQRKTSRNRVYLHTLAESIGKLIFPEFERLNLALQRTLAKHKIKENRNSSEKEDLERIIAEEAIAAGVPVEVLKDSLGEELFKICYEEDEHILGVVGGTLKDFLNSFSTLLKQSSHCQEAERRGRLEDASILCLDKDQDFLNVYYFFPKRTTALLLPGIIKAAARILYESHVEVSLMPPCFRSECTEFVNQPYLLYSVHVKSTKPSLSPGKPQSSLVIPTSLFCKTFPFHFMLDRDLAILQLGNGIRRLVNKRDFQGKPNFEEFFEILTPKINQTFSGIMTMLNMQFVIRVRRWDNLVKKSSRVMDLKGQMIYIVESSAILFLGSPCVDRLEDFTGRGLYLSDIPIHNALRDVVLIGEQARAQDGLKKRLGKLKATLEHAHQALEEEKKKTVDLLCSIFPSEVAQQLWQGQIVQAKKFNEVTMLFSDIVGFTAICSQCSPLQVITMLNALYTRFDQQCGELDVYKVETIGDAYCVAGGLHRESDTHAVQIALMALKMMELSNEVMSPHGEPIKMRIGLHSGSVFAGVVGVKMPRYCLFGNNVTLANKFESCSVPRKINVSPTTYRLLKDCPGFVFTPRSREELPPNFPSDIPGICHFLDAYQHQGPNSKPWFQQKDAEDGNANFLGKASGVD
Put plainly: Cellular assay, VASP phosphorylation in rat aortic smooth muscle cells with ODQ. Conditions: phospho-VASP signal, primary rat aortic smooth muscle cells, 10 μM ODQ, 30 min incubation; 50% vs. Bmax; read-out: Cell assay pEC50 (converted). The test is classed as cell-based. As to the method: The activity of soluble guanylate cyclase (sGC) was tested in an assay based on measuring phosphorylation of the protein kinase G (PKG) substrate vasodilator-stimulated phosphoprotein (VASP) in rat aortic smooth muscle cells. […] Dimethylsulfoxide (DMSO) vehicle and varying concentrations of the compound to be tested were then added. Following a 30 min incubation at 37° C., media was aspirated and the cells were rinsed with phosphate-buffered saline (PBS) and fixed with 4% formaldehyde in PBS by incubating at room temperature for 20 min. Cells were then washed with PBS and permeabilized for 10 min using 0.1% triton X-100 in PBS. Following PBS rinsing, the cells were blocked for 90 min at room temperature with blocking buffer. The buffer was aspirated and the cells were treated overnight at 4° C. with primary antibody (pSer239-VASP, rabbit polyclonal Ab) diluted 1:500 in blocking buffer. Following three washes with 0.05% Tween 20, the cells were treated for 1 h at room temperature with a fluorescent labeled secondary antibody (IRDye® 800CW Donkey Anti-Rabbit IgG) diluted 1:2500 in blocking buffer with 0.05% Tween 20. Following two washes with PBS, infrared fluorescence was measured using an Odyssey Infrared Imaging System. The activity of a test compound was determined as the pEC50 value which is the concentration able to increase by 50% (vs. Bmax) the phospho-VASP fluorescent signal. Front. Pharmacol., 5 Jul. 2012|doi: 10.3389/fphar.2012.00128, Volume 3 July, 2012, Article number 128.

The test system of test [2] is intraocular pressure. Put plainly: IOP in Japanese White rabbits after topical administration. The format is in vivo. Particulars: 50 microliter to right eye, FIG. 1. As to the method:
(§1) In Japanese White rabbits, IOP was measured at baseline (immediately preceding administration of test article) and at predetermined time points (1, 2, 3, 5, 7, 9, 24 hours; additional time points were 30 and 48 hours after intravitreal administration) after topical (FIG. 1) or intravitreal (FIG. 2) administration of ophthalmic formulations containing drug, vehicle or saline using applanation tonometry. Test articles were topically administered in a 50 microliter volume to the right eye, saline in a 50 microliter volume to the contralateral, left eye. For intravitreal administration, dosing volumes were 20 microliters instead. For each animal, the difference between right eye IOP and left eye IOP was calculated as delta IOP.

The test system of test [3] is intraocular pressure. The test is described as follows: IOP in Japanese White rabbits after intravitreal administration. The format is in vivo. Conditions: FIG. 2. On the procedure:
as §1

In test [4] the test system is intraocular pressure. Put plainly: IOP in normal C57BL/6J mice after topical administration. The format is in vivo. Particulars: 4 microliter to right eye, compared with latanoprost, FIG. 3. As to the method: Additionally, the effect on IOP in normal mice was also assessed. In C57BL/6J mice, IOP was measured at baseline (immediately preceding administration of test article) and at predetermined time points (1, 2, 3, 4, 6, 8, 24 hours) after topical administration of ophthalmic formulations containing drug, vehicle or saline using a TonoLab. Test articles were administered in a 4 microliter volume to the right eye, saline in a 4 microliter volume to the contralateral, left eye. For each animal, the difference between right eye IOP and left eye IOP was calculated as delta IOP.

On to `Cc1cc(OCCCC(F)(F)F)ccc1CCc1ccccc1-c1cccc(-n2ncc(C(=O)O)c2C(F)(F)F)n1` [Example 1, 1-(6-(2-(2-methyl-4-(4,4,4-trifluorobutoxy)phenethyl)phenyl)pyridin-2-yl)-5-(trifluoromethyl)-1H-pyrazole-4-carboxylic acid], for which, in test [1], the EC50 is 14.5 nM. In addition, the “effect on IOP (delta IOP)” value was “dose-dependently and effectively decreased IOP” with intraocular pressure [2]; “long-lasting and effective reduction in IOP” in the test with intraocular pressure [3] (20 microliters to right eye); “lowered IOP with efficacy similar to latanoprost, but without the initial hypertensive spike” in the test on intraocular pressure [4]. Further, the “duration of IOP reduction” value with intraocular pressure [3] was “at least 48 hours”.

Regarding `Cc1cc(OCCCn2ccc(C(F)(F)F)n2)ccc1CCc1ccccc1-c1cccc(-n2ncc(C(=O)O)c2C(F)(F)F)n1` [Example 3, 1-(6-(2-(2-methyl-4-(3-(3-(trifluoromethyl)-1H-pyrazol-1-yl)propoxy)phenethyl)phenyl)pyridin-2-yl)-5-(trifluoromethyl)-1H-pyrazole-4-carboxylic acid], the EC50 in test [1] was 5.89 nM.

Consider `O=C(O)c1cnn(-c2cccc(-c3ccccc3OCc3ccc(OCCCC(F)(F)F)cc3F)n2)c1C(F)(F)F` [Example 5, 1-(6-(2-((2-fluoro-4-(4,4,4-trifluorobutoxy)benzyl)oxy)phenyl)pyridin-2-yl)-5-(trifluoromethyl)-1H-pyrazole-4-carboxylic acid], for which, in test [1], the EC50 is 60.3 nM.

In the case of `COCCCOc1ccc(COc2ccccc2-c2cccc(-n3ncc(C(=O)O)c3C(F)(F)F)n2)c(F)c1` [Example 6, 1-(6-(2-((2-fluoro-4-(3-methoxypropoxy)benzyl)oxy)phenyl)pyridin-2-yl)-5-(trifluoromethyl)-1H-pyrazole-4-carboxylic acid], the EC50 in test [1] was 151 nM.

On to `Cc1cc(OCCCC#N)ccc1COc1ccccc1-c1cccc(-n2ncc(C(=O)O)c2C(F)(F)F)n1` [Example 9, 1-(6-(2-((4-(3-cyanopropoxy)-2-methylbenzyl)oxy)phenyl)pyridin-2-yl)-5-(trifluoromethyl)-1H-pyrazole-4-carboxylic acid], for which the EC50 in test [1] was above 631 nM.

Turning to `COCCCOc1ccc(COc2ccccc2-c2cccc(-n3ncc(C(=O)O)c3C(F)(F)F)n2)c(C)c1` [Example 10, 1-(6-(2-((4-(3-methoxypropoxy)-2-methylbenzyl)oxy)phenyl)pyridin-2-yl)-5-(trifluoromethyl)-1H-pyrazole-4-carboxylic acid], the EC50 in test [1] was 91.2 nM.

As for `Cc1cc(OCCCC(F)(F)F)ccc1COc1ccccc1-c1cccc(-n2ncc(C(=O)O)c2C(F)(F)F)n1` [Example 11, 1-(6-(2-((2-methyl-4-(4,4,4-trifluorobutoxy)benzyl)oxy)phenyl)pyridin-2-yl)-5-(trifluoromethyl)-1H-pyrazole-4-carboxylic acid], the EC50 in test [1] was 102 nM.
